This is an account of results in patent EP0125439A2, “3,6-Disubstituted-1,8-naphthalimides and methods for their production and use” (WARNER-LAMBERT COMPANY, priority 1983, dated 1984).

Counter-ions that a name gives are not always drawn. Like-named read-outs stand apart in the source and are kept apart here.

Test [1] has as its system lymphocytic leukemia P388. Nature of the test: in vivo lymphocytic leukemia P388 test. Details: species or system CD2Fl mice. To be noted: survival time treated/control. As to the method:
Another test protocol is the in vivo lymphocytic leukemia P388 test. The animals used are either male or female CD2Fl mice, six or seven animals per test group. The tumor transplant is by intraperitoneal injection of dilute ascitic fluid containing cells of lymphocytic leukemia P388. The test compounds are administered intraperitoneally once daily for five consecutive days at various doses following tumor inoculation. The animals are weighed and survivors are recorded on a regular basis for 30 days. A compound is designated "toxic" if, at a given dose, all animals died prior to four days after the first injection of drug. A ratio of survival time for treated (T)/control (C) animals is calculated. A criterion for efficacy is a ratio T/C times 100 greater than or equal to 125. See Cancer Chemotherapy Reports, Part 3, 3, 1 (1972) for a comprehensive discussion of the protocol.

Another test has as its system B16 melanoma. Nature of the test: solid tumor B16 melanoma in mice. It is filed as in vivo. To be noted: survival time treated/control. Here is the method:
Another test protocol utilizes the solid tumor B16 melanoma in mice. The tumor is inoculated by intraperitoneal injection. The test compounds are administered intraperitoneally once daily for nine consecutive days at various doses following tumor inoculation. A ratio of survival time for treated (T)/control (C) animals is calculated. A criterion for efficacy is a ratio T/C times 100 greater than or equal to 125. See Cancer Therapy Reviews, 7, 167 (1980) and references cited therein for further details and interpretation of the test.

The next test deals with mouse tumor line L1210. As to the kind of experiment: growth inhibition of L1210 in suspension cell culture. It is filed as cell-based. To be noted: read-out: L1210 Leukemia In Vitro ID50. As to the method:
In another test protocol, growth-inhibitory effects are measured against the mouse tumor line L1210 in suspension cell culture. Cell cultures were initiated at a density of 50,000 cells/ml in medium RPMI 1630 supplemented with 10 percent fetal calf serum. Composition of this culture medium and details of the culture procedure follow the published method (Journal of the National Cancer Institute 36, 405-415, 1966). Cultures are maintained at 37 degrees in stationary suspension culture under a 95 percent air + 5 percent C02 atmosphere. Test compounds are added to treated cultures at the time of initiation, and are present continually. After 72 hours, 40-fold dilutions of drug- treated and untreated control cultures are prepared in 0.9 percent NaCl solution, and cells are counted on an electronic particle counter. The growth-inhibitory effects are expressed as IDSO values, namely, test compound inhibitory dosages or concentrations required to decrease cell count in treated cultures to 50 percent of the cell count of untreated control cultures.

Test [2] concerns Streptococcus faecalis 05045. As to the kind of experiment: in vitro antibacterial/antifungal (ABF) agar-disk diffusion assay. The test is classed as cell-based. To be noted: Enterococcus faecalis, Dose 500 mg/ml, AM-09 medium, read-out: Inhibition Zone Diameter S. Faecalis. As to the method: (§1) Another test protocol is the in vitro anti- bacterial/antifungal (ABF) test. Compounds are tested for antimicrobial activity in an agar-disk diffusion assay, a standard microbiological technique for testing antibiotics. After incubation of each culture with a test compound, a zone of inhibition is determined. The zone diameter (mm) of active compounds ranges from a minimum of 13.5 mm to as high as 60 mm, with a greater diameter reflecting higher activity. For convenience, values are reported for the gram-negative bacterial species (Escherichia coli 04863), two gram positive bacteria (Bacillus subtilis 04555 and Streptococcus faecalis 05045 utilizing AM-09 medium), and one mycelial fungus (Penicillium avellaneum M2988).

In test [3] the test system is Penicillium avellaneum M2988. Described as above. It is filed as cell-based. To be noted: Hamigera avellanea, read-out: Inhibition Zone Diameter P. avellaneum; for zone of inhibition at 500000 µg/mL: Dose 500 mg/ml. As to the method: as §1
Another test has as its system Bacillus subtilis 04555. The test is described as above. It is filed as cell-based. Particulars: Dose 100 mg/ml, read-out: Inhibition Zone Diameter B. Subtilis. As to the method: as §1
The next test relates to Escherichia coli 04863. The test is described as above. It is filed as cell-based. Particulars: Dose 500 mg/ml, read-out: Inhibition Zone Diameter E. Coli. As to the method: as §1
The subject of another test is HCT-8 cells. As to the kind of experiment: in vitro proliferating human colon adenocarcinoma (HCA) cell screen. To be noted: 60 - 65 hours with compound, nuclei count, 50% inhibition of growth, read-out: ID50 (the source's name). It is filed as cell-based. Here is the method:
One test protocol is the in vitro proliferating human colon adenocarcinoma (HCA) cell screen. In this test, HCT-8 cells (HCA cell line received from Yale University) are trypsinized using trypsin-EDTA. A single cell suspension is achieved by passing the cells through a 26 gauge needle with a 20 cc syringe. A cell suspension is prepared using RPMI 1640 + 10% FCS + 50 ug/ml gentamicin sulfate with a cell concentration of approximately 30t000 cells/ml. The cell suspension is dispensed in Linbro 24-well plates; 1 ml/well. The plates are incubated for approximately 48 hours at 37 degrees C. in a 5% C02 atmosphere. At this time test compounds are added in the appropriate concentration. Five ul of the 200 ug/ml stock solution is added to each well in a primary test. Ten ul of the appropriate dilution is added to each well for a titration test. The plates are reincubated an additional 60 - 65 hours at 37 degrees C. in a 5% C02 atmosphere. The cells are lysed using a mix of cationic surfactant, glacial acetic acid and sodium chloride. Two ml of the lysed cell suspension from each well is added to 8 ml of diluent. The number of nuclei is determined using a Coulter counter (ZBI model), and a percent growth for each drug concentration is calculated. From this, an ID50 (molar concentration of compound that results in 50% inhibition of growth) is determined.

`CN(C)CCN1C(=O)c2cc([N+](=O)[O-])cc3cc([N+](=O)[O-])cc(c23)C1=O` [CH2CH2NMe2, N-[2-(Dimethylamino)ethyl]-3,6,-dinitro-1,8-naphtalamide, Hydrochloride]: the “P388 Leukemia In Mice T/C X100” value in test [1] (Dose 3.12 mg/kg intraperitoneally once daily for five days) is recorded as 167%. For the same molecule, the “B16 Melanoma T/C X100” value in the test with B16 melanoma (Dose 1.00 mg/kg intraperitoneally once daily for nine days) is reported as 125%. Moreover, the IC50 with mouse tumor line L1210 (L1210, 72 hours, cell count 50 percent of untreated control) was determined as 36 nM.
With `O=C1c2cc([N+](=O)[O-])cc3cc([N+](=O)[O-])cc(c23)C(=O)N1CCN1CCCC1` [CH2CH2N(CH2)4, 3,6-Dinitro-N[2-(pyrrolidinyl)ethyl]-1,8-naphthalimide Hydrocholoride], the zone of inhibition at 500000 µg/mL in test [2] amounted to 18 mm; in test [3] it was 22 mm; in the test on Escherichia coli 04863 it was 17 mm. Further, the zone of inhibition at 100000 µg/mL with Bacillus subtilis 04555 is 16 mm. The IC50 in the test on HCT-8 cells is 180 nM; in the test with mouse tumor line L1210 (L1210, 72 h), 83 nM.
For the molecule `O=C1c2cc([N+](=O)[O-])cc3cc([N+](=O)[O-])cc(c23)C(=O)N1CCN1CCOCC1` [3,6-Dinitro-N-[2-(morpholino)ethyl]-1,8-naphthalimide], the zone of inhibition at 500000 µg/mL in test [2] worked out at 14 mm. In addition, the zone of inhibition at 3 g/mL in test [3] (Dose 3000 mg/ml) stood at 15 mm. Further, the zone of inhibition at 100000 µg/mL in the test with Bacillus subtilis 04555 is 22 mm. In addition, the IC50 amounted to 860 nM in the test with HCT-8 cells and 1100 nM in the test on mouse tumor line L1210 (L1210, 72 h).
Consider `O=C1c2cc([N+](=O)[O-])cc3cc([N+](=O)[O-])cc(c23)C(=O)N1CCN1CCCCC1` [CH2CH2N(CH2)5, 3,6-Dinitro-N-[2-(piperidinyl)ethyl]-1,8-naphthalimide, Hydrochloride], for which the figures for the zone of inhibition at 500000 µg/mL (in test [2]; in test [3]; in the test with Escherichia coli 04863) were 19 mm, 26 mm and 16 mm, respectively. Besides, the zone of inhibition at 100000 µg/mL in the test on Bacillus subtilis 04555 was determined as 24 mm. For the same molecule, the IC50 with HCT-8 cells is 480 nM; in the test on mouse tumor line L1210 (L1210, 72 h) it was 290 nM. Moreover, in the test with B16 melanoma (Dose 12.5 mg/kg intraperitoneally once daily for nine days), the “B16 Melanoma T/C X100” value amounted to 135%.
Regarding `CCN(CC)CCN1C(=O)c2cc([N+](=O)[O-])cc3cc([N+](=O)[O-])cc(c23)C1=O` [CH2CH2NEt2, N-[2-(Diethylamino)ethyl]-3,6-dinitro-1.8-naphthalimide Hydrochloride], the IC50 with HCT-8 cells turned out to be 960 nM; in the test with mouse tumor line L1210 (L1210, 72 h) it was 350 nM. In test [1] (Dose 1.56 mg/kg intraperitoneally once daily for five days), the “P388 Leukemia In Mice T/C X100” value is on record as 155%.
